One data set deals with A549. Put plainly: Antiproliferative activity against human A549 cells assessed as cell growth inhibition incubated for 48 hrs by MTT assay. It is filed as functional, cell-based. Conditions: A549, 48 h.
The target of a further data set is Tubulin. Nature of the data set: Inhibition of tubulin polymerization (unknown origin) measured for 20 mins in presence of GTP by spectrophotometry analysis. In kind it is protein-complex assay, Homo sapiens.
Data set [1] can be described thus: AUC (0-infinity) in Sprague-Dawley rat at 2 mg/kg,iv measured upto 24 hrs by LC-MS/MS analysis. In kind it is ADME, organism-based. Set-up: dose 2 mg/kg, time < 24 hrs, route iv. The following applies: in vivo.
A short description of data set [2]: Half life in Sprague-Dawley rat at 10 mg/kg,po measured upto 24 hrs by LC-MS/MS analysis. The following applies: in vivo. It is filed as ADME, organism-based.
Data set [3] is described as follows: Clearance in Sprague-Dawley rat at 10 mg/kg,po measured upto 24 hrs by LC-MS/MS analysis. In kind it is ADME, organism-based. The following applies: in vivo.
The nature of data set [4]: Cmax in Sprague-Dawley rat at 2 mg/kg,iv measured upto 24 hrs by LC-MS/MS analysis. Set-up: time < 24 hrs, dose 2 mg/kg, route iv. The following applies: in vivo. It is filed as ADME, organism-based.
Data set [5] concerns HeLa. Nature of the data set: Induction of cell cycle arrest in human HeLa cells assessed as accumulation of cells at G0/G1 phase at 0.06 uM incubated for 24 hrs by propidium iodide staining based flow cytometry (reference value: 62.4 %). In kind it is functional. For orientation: Flow cytometry measures light scatter and fluorescence of single cells or particles in a stream.

For data set [6], the system named is HeLa. Put plainly: Induction of cell cycle arrest in human HeLa cells assessed as accumulation of cells at G2/M phase at 0.06 uM incubated for 24 hrs by propidium iodide staining based flow cytometry (reference value: 17.38 %). In kind it is functional.
Data set [7] deals with HeLa. Put plainly: Induction of cell cycle arrest in human HeLa cells assessed as accumulation of cells at G2/M phase at 0.12 uM incubated for 24 hrs by propidium iodide staining based flow cytometry (reference value: 17.38 %). In kind it is functional.
In data set [8] the test system is HeLa. Put plainly: Induction of apoptosis in human HeLa cells assessed as viable cells at 0.03 uM incubated for 24 hrs Annexin V-FITC/PI staining based flow cytometry analysis (Rvb= 95.9 %). In kind it is functional. The following applies: read-out: Activity.
The test system of data set [9] is HeLa. Put plainly: Induction of apoptosis in human HeLa cells assessed as viable cells at 0.12 uM incubated for 24 hrs Annexin V-FITC/PI staining based flow cytometry analysis (Rvb= 95.9 %). In kind it is functional. Conditions: read-out: Activity.
For data set [10], the system named is HeLa. Nature of the data set: Induction of apoptosis in human HeLa cells assessed as early apoptotic cells at 0.03 uM incubated for 24 hrs Annexin V-FITC/PI staining based flow cytometry analysis (Rvb= 1.85 %). It is filed as functional.
Data set [11] concerns HeLa. Nature of the data set: Induction of apoptosis in human HeLa cells assessed as necrotic cells at 0.12 uM incubated for 24 hrs Annexin V-FITC/PI staining based flow cytometry analysis (Rvb= 0.12 %). In kind it is functional.
In a further data set the test system is HUVEC. Nature of the data set: Antivascular activity against human HUVEC cells assessed as inhibition of cell migration incubated for 24 hrs by wound healing assay. It is filed as functional, cell-based.

Molecules are shown by their SMILES.

Data on one compound can be found in ChEMBL document CHEMBL5370538, “Discovery of novel 6-p-tolyl-3-(3,4,5-trimethoxybenzyl)-7H-[1,2,4]triazolo[3,4-b][1,3,4]thiadiazine derivative as a potent tubulin inhibitor with promising in vivo antitumor activity” (Eur J Med Chem, 2023).

By IC50 is commonly meant the midpoint of a concentration-inhibition curve. One may read the AUC(0-inf) as total exposure, with the tail of the curve extrapolated. A word on the half-life: it is the time needed for the level to fall by half in the phase considered. A higher half-life goes with slow loss. As a reminder, the CL/F is the apparent clearance, not corrected for the fraction that reaches the circulation. What is called Cmax is the peak of the concentration-time curve. Consider `COc1cc(Cc2nnc3n2N=C(c2ccc(C)cc2)CS3)cc(OC)c1OC`, for which the IC50 was 0.96 µM in the data set with A549 and 11.2 µM at Tubulin. The compound further yielded an AUC(0-inf) in [1] of 310 ng·h/mL. Further, in data set [2], the half-life is 4.8 h. For the same compound, the apparent clearance (CL/F) in data set [3] is 2180 mL/min/kg. This compound also registered a Cmax in [4] of 670 ng/mL. Also, the Activity in the data set on HeLa [5] was 1.94%; with HeLa [6], 69.71%; in the data set with HeLa [7], 91.09%; with HeLa [10], 18.6%; with HeLa [11], 1.59%; in the data set with HUVEC, “Dose-Dependent Effect”. The viability at 0.03 µM in the data set on HeLa [8] was 76%. In the data set on HeLa [9], the viability at 0.12 µM came to 65.2%.
